# Literature values, collected in patent publication US11612579B2, “Compositions comprising a fatty acid oil mixture and a surfactant, and methods and uses thereof” (PRONOVA BIOPHARMA NORGE AS, priority 2009, dated 2023).
# Values joined by “and” are separate entries in the source; they are usually repeats but may differ in a detail not shown here. Equal entries are not always repeated.
# Conditions: commercially-available surfactants
row,Molecule,HLB Value
1,CCCCCCCCCCCCCCCC[N+](C)(C)C.[Br-] [Cetrimonium bromide],23.3
2,CCCCCCCCCCCC(=O)OCCOCCO [Diethylene glycol monolaurate],6.1
3,CCCCCCCCCCCCCCCCCC(=O)OCCOC(=O)CCCCCCCCCCCCCCCCC [Ethylene glycol distearate],1.5
4,CCCCCCCCCCCCCCCCCC(=O)OCC(O)CO (centres unmarked) [Glyceryl monostearate],3.3 and 3.8
5,CCCCCCCCCCCCOS(=O)(=O)[O-].[Na+] [Sodium lauryl sulphate],40
6,sorbitan monooleate [Span ® 80],4.3
7,sorbitan monopalmitate [Span ® 40],6.7
8,sorbitan monostearate [Span ® 60],4.7
